Assays:
Format in all cases: functional
TK-10 [1] = experiment: Growth inhibition of human TK10 cells assessed as cell growth at 5X10'-8 M after 48 hrs by sulforhodamine B assay; conditions: TK-10, 48 h, read-out: Activity
NCI-H522 [2] = experiment: Growth inhibition of human NCI-H522 cells assessed as cell growth at 5X10'-5 M after 48 hrs by sulforhodamine B assay; conditions: NCI-H522, 48 h, read-out: Activity
LOX IMVI = experiment: Growth inhibition of human LOXIMVI cells assessed as cell growth at 5X10'-6 M after 48 hrs by sulforhodamine B assay; conditions: read-out: Activity
CCRF-CEM = experiment: Growth inhibition of human CCRF-CEM cells assessed as cell growth at 5X10'-8 M after 48 hrs by sulforhodamine B assay; conditions: read-out: Activity
SF-268 = experiment: Growth inhibition of human SF268 cells assessed as cell growth at 5X10'-8 M after 48 hrs by sulforhodamine B assay; conditions: SF-268, 48 h, read-out: Activity
[3] = Growth inhibition of human Hs 578T cells assessed as cell growth at 5X10'-5 M after 48 hrs by sulforhodamine B assay; conditions: read-out: Activity
SN12C = experiment: Growth inhibition of human SN12C cells assessed as cell growth at 5X10'-5 M after 48 hrs by sulforhodamine B assay; conditions: read-out: Activity
MCF7 = experiment: Growth inhibition of human MCF7 cells assessed as cell growth at 5X10'-6 M after 48 hrs by sulforhodamine B assay; conditions: MCF7, 48 h, read-out: Activity
COLO 205 = experiment: Growth inhibition of human COLO205 cells assessed as cell growth at 5X10'-8 M after 48 hrs by sulforhodamine B assay; conditions: COLO 205, 48 h, read-out: Activity
NCI-H23 = experiment: Growth inhibition of human NCI-H23 cells assessed as cell growth at 5X10'-7 M after 48 hrs by sulforhodamine B assay; conditions: NCI-H23, 48 h, read-out: Activity
[4] = Growth inhibition of human Hs 578T cells assessed as cell growth at 5X10'-7 M after 48 hrs by sulforhodamine B assay; conditions: read-out: Activity
KM12 = experiment: Growth inhibition of human KM12 cells assessed as cell growth at 5X10'-6 M after 48 hrs by sulforhodamine B assay; conditions: KM12, 48 h, read-out: Activity
SR = experiment: Growth inhibition of human SR cells assessed as cell growth at 5X10'-9 M after 48 hrs by sulforhodamine B assay; conditions: read-out: Activity
K562 = experiment: Growth inhibition of human K562 cells assessed as cell growth at 5X10'-5 M after 48 hrs by sulforhodamine B assay; conditions: K562, 48 h, read-out: Activity
CAKI-1 = experiment: Growth inhibition of human CAKI-1 cells assessed as cell growth at 5X10'-8 M after 48 hrs by sulforhodamine B assay; conditions: CAKI-1, 48 h, read-out: Activity
MDA-MB-468 = experiment: Growth inhibition of human MDA-MB-468 cells assessed as cell growth at 5X10'-5 M after 48 hrs by sulforhodamine B assay; conditions: MDA-MB-468, 48 h, read-out: Activity
Malme-3M = experiment: Growth inhibition of human MALME-3M cells assessed as cell growth at 5X10'-7 M after 48 hrs by sulforhodamine B assay; conditions: read-out: Activity
SF-295 = experiment: Growth inhibition of human SF295 cells assessed as cell growth at 5X10'-7 M after 48 hrs by sulforhodamine B assay; conditions: SF-295, 48 h, read-out: Activity
BT-549 [5] = experiment: Growth inhibition of human BT549 cells assessed as cell growth at 5X10'-7 M after 48 hrs by sulforhodamine B assay; conditions: BT-549, 48 h, read-out: Activity
OVCAR-5 = experiment: Growth inhibition of human OVCAR5 cells assessed as cell growth at 5X10'-5 M after 48 hrs by sulforhodamine B assay; conditions: OVCAR-5, 48 h, read-out: Activity
BT-549 [6] = experiment: Growth inhibition of human BT549 cells assessed as cell growth at 5X10'-6 M after 48 hrs by sulforhodamine B assay; conditions: BT-549, 48 h, read-out: Activity
TK-10 [7] = experiment: Growth inhibition of human TK10 cells assessed as cell growth at 5X10'-5 M after 48 hrs by sulforhodamine B assay; conditions: TK-10, 48 h, read-out: Activity
DU-145 = experiment: Growth inhibition of human DU145 cells assessed as cell growth at 5X10'-7 M after 48 hrs by sulforhodamine B assay; conditions: DU-145, 48 h, read-out: Activity
HOP-92 [8] = experiment: Growth inhibition of human HOP92 cells assessed as cell growth at 5X10'-8 M after 48 hrs by sulforhodamine B assay; conditions: HOP-92, 48 h, read-out: Activity
786-0 = experiment: Growth inhibition of human 786-0 cells assessed as cell growth at 5X10'-5 M after 48 hrs by sulforhodamine B assay; conditions: 786-0, 48 h, read-out: Activity
[9] = Growth inhibition of human HCC2998 cells assessed as cell growth at 5X10'-8 M after 48 hrs by sulforhodamine B assay; conditions: HCC 2998, 48 h, read-out: Activity
NCI-H522 [10] = experiment: Growth inhibition of human NCI-H522 cells assessed as cell growth at 5X10'-7 M after 48 hrs by sulforhodamine B assay; conditions: NCI-H522, 48 h, read-out: Activity
T47D = experiment: Growth inhibition of human T47D cells assessed as cell growth at 5X10'-7 M after 48 hrs by sulforhodamine B assay; conditions: read-out: Activity
NCI-H322M = experiment: Growth inhibition of human NCI-H322M cells assessed as cell growth at 5X10'-8 M after 48 hrs by sulforhodamine B assay; conditions: read-out: Activity
OVCAR-8 = experiment: Growth inhibition of human OVCAR8 cells assessed as cell growth at 5X10'-5 M after 48 hrs by sulforhodamine B assay; conditions: OVCAR-8, 48 h, read-out: Activity
SNB-75 = experiment: Growth inhibition of human SNB75 cells assessed as cell growth at 5X10'-5 M after 48 hrs by sulforhodamine B assay; conditions: SNB-75, 48 h, read-out: Activity
SK-OV-3 = experiment: Growth inhibition of human SKOV3 cells assessed as cell growth at 5X10'-5 M after 48 hrs by sulforhodamine B assay; conditions: SK-OV-3, 48 h, read-out: Activity
A498 = experiment: Growth inhibition of human A498 cells assessed as cell growth at 5X10'-8 M after 48 hrs by sulforhodamine B assay; conditions: A498, 48 h, read-out: Activity
MOLT-4 = experiment: Growth inhibition of human MOLT4 cells assessed as cell growth at 5X10'-5 M after 48 hrs by sulforhodamine B assay; conditions: MOLT-4, 48 h, read-out: Activity
HOP-92 [11] = experiment: Growth inhibition of human HOP92 cells assessed as cell growth at 5X10'-9 M after 48 hrs by sulforhodamine B assay; conditions: HOP-92, 48 h, read-out: Activity
[12] = Growth inhibition of human HCC2998 cells assessed as cell growth at 5X10'-5 M after 48 hrs by sulforhodamine B assay; conditions: HCC 2998, 48 h, read-out: Activity
OVCAR-4 = experiment: Growth inhibition of human OVCAR4 cells assessed as cell growth at 5X10'-9 M after 48 hrs by sulforhodamine B assay; conditions: OVCAR-4, 48 h, read-out: Activity

COc1cc(-c2nn(-c3cccc(NC(=O)Nc4cc(C(F)(F)F)cc(C(F)(F)F)c4)c3)cc2-c2ccncc2)ccc1Cl showed a growth at 0.05 µM (TK-10 [1]) of 98%, a growth at 50 µM (NCI-H522 [2]) of -65% and a growth at 5 µM (LOX IMVI) of -90%. For the same molecule, the growth at 0.05 µM (CCRF-CEM) was 94%, the growth at 0.05 µM (SF-268) was 105% and the growth at 50 µM [3] was -10%. The growth at 50 µM (SN12C) was -45%, the growth at 5 µM (MCF7) was 2% and the growth at 0.05 µM (COLO 205) was 102%. The growth at 0.5 µM (NCI-H23) was 85%, the growth at 0.5 µM [4] was 79% and the growth at 5 µM (KM12) was -71%. The growth at 0.005 µM (SR) was 102%, the growth at 50 µM (K562) was -16% and the growth at 0.05 µM (CAKI-1) was 95%. It also gave a growth at 50 µM (MDA-MB-468) of -53%, a growth at 0.5 µM (Malme-3M) of 83% and a growth at 0.5 µM (SF-295) of 45%. The growth at 0.5 µM (BT-549 [5]) was 98%, the growth at 50 µM (OVCAR-5) was -72% and the growth at 5 µM (BT-549 [6]) was -27%. For the same molecule, the growth at 50 µM (TK-10 [7]) was -86%, the growth at 0.5 µM (DU-145) was 86% and the growth at 0.05 µM (HOP-92 [8]) was 67%. It also gave a growth at 50 µM (786-0) of -63%, a growth at 0.05 µM [9] of 105% and a growth at 0.5 µM (NCI-H522 [10]) of 60%. For the same molecule, the growth at 0.5 µM (T47D) was 89%, the growth at 0.05 µM (NCI-H322M) was 103% and the growth at 50 µM (OVCAR-8) was -11%. The growth at 50 µM (SNB-75) was -62%, the growth at 50 µM (SK-OV-3) was -62% and the growth at 0.05 µM (A498) was 82%. The growth at 50 µM (MOLT-4) was -11%, the growth at 0.005 µM (HOP-92 [11]) was 77% and the growth at 50 µM [12] was -88%. For the same molecule, the growth at 0.005 µM (OVCAR-4) was 95%.

Molecule COc1cc(-c2nn(-c3cccc(NC(=O)c4cccc(C(F)(F)F)c4)c3)cc2-c2ccncc2)ccc1Cl has a growth at 0.05 µM (TK-10 [1]) of 97%, a growth at 50 µM (NCI-H522 [2]) of -24% and a growth at 5 µM (LOX IMVI) of 8%. The growth at 0.05 µM (CCRF-CEM) was 98%, the growth at 0.05 µM (SF-268) was 93% and the growth at 50 µM [3] was 13%. For the same molecule, the growth at 50 µM (SN12C) was 24%, the growth at 5 µM (MCF7) was 13% and the growth at 0.05 µM (COLO 205) was 101%. The growth at 0.5 µM (NCI-H23) was 86%, the growth at 0.5 µM [4] was 74% and the growth at 5 µM (KM12) was 14%. For the same molecule, the growth at 0.005 µM (SR) was 96%, the growth at 50 µM (K562) was 7% and the growth at 0.05 µM (CAKI-1) was 98%. It also gave a growth at 50 µM (MDA-MB-468) of -32%, a growth at 0.5 µM (Malme-3M) of 89% and a growth at 0.5 µM (SF-295) of 83%. For the same molecule, the growth at 0.5 µM (BT-549 [5]) was 102%, the growth at 50 µM (OVCAR-5) was 31% and the growth at 5 µM (BT-549 [6]) was 34%. It also gave a growth at 50 µM (TK-10 [7]) of 18%, a growth at 0.5 µM (DU-145) of 92% and a growth at 0.05 µM (HOP-92 [8]) of 81%. The growth at 50 µM (786-0) was 3%, the growth at 0.05 µM [9] was 100% and the growth at 0.5 µM (NCI-H522 [10]) was 79%. It also gave a growth at 0.5 µM (T47D) of 84%, a growth at 0.05 µM (NCI-H322M) of 88% and a growth at 50 µM (OVCAR-8) of 10%. For the same molecule, the growth at 50 µM (SNB-75) was 8%, the growth at 50 µM (SK-OV-3) was 17% and the growth at 0.05 µM (A498) was 80%. It also gave a growth at 50 µM (MOLT-4) of 16%, a growth at 0.005 µM (HOP-92 [11]) of 90% and a growth at 50 µM [12] of -17%. The growth at 0.005 µM (OVCAR-4) was 94%.

COc1cc(-c2nn(-c3cccc(NC(=O)Nc4ccc(Cl)c(Cl)c4)c3)cc2-c2ccncc2)ccc1Cl gave a growth at 0.05 µM (TK-10 [1]) of 103%, a growth at 50 µM (NCI-H522 [2]) of -26% and a growth at 5 µM (LOX IMVI) of -32%. It also gave a growth at 0.05 µM (CCRF-CEM) of 98%, a growth at 0.05 µM (SF-268) of 102% and a growth at 50 µM [3] of 4%. The growth at 50 µM (SN12C) was 10%, the growth at 5 µM (MCF7) was 2% and the growth at 0.05 µM (COLO 205) was 112%. For the same molecule, the growth at 0.5 µM (NCI-H23) was 91%, the growth at 0.5 µM [4] was 83% and the growth at 5 µM (KM12) was -24%. The growth at 0.005 µM (SR) was 99%, the growth at 50 µM (K562) was 3% and the growth at 0.05 µM (CAKI-1) was 93%. The growth at 50 µM (MDA-MB-468) was -31%, the growth at 0.5 µM (Malme-3M) was 82% and the growth at 0.5 µM (SF-295) was 62%. The growth at 0.5 µM (BT-549 [5]) was 97%, the growth at 50 µM (OVCAR-5) was 15% and the growth at 5 µM (BT-549 [6]) was 8%. It also gave a growth at 50 µM (TK-10 [7]) of -1%, a growth at 0.5 µM (DU-145) of 90% and a growth at 0.05 µM (HOP-92 [8]) of 64%. It also gave a growth at 50 µM (786-0) of -20%, a growth at 0.05 µM [9] of 100% and a growth at 0.5 µM (NCI-H522 [10]) of 68%. For the same molecule, the growth at 0.5 µM (T47D) was 84%, the growth at 0.05 µM (NCI-H322M) was 102% and the growth at 50 µM (OVCAR-8) was -16%. For the same molecule, the growth at 50 µM (SNB-75) was -15%, the growth at 50 µM (SK-OV-3) was 6% and the growth at 0.05 µM (A498) was 89%. The growth at 50 µM (MOLT-4) was -19%, the growth at 0.005 µM (HOP-92 [11]) was 75% and the growth at 50 µM [12] was -19%. It also gave a growth at 0.005 µM (OVCAR-4) of 96%.
